Measured values: patent US11986522B2, “Immunotherapeutic composition and uses thereof” (ARAVAX PTY LTD, priority 2013, dated 2024)
Entries after “also recorded” stand apart in the source; their conditions may differ. No end group written: not given here.

B1: Ara h 2: major peanut allergen, glycoprotein of the conglutin seed storage family (protein, listed as Arachis hypogaea)
chain: LTILVALALFLLAAHASARQQWELQGDRRCQSQLERANLRPCEQHLMQKIQRDEDSYERDPYSPSQDPYSPSPYDRRGAGSSQHQERCCNELNEFENNQRCMCEALQQIMENQSDRLQGRQQEQQFKRELRNLPQQCGLRAPQRCDLDVESGGRDRY

Legend:
HLA-DR, HLA-DQ, HLA-DP = assay: HLA class II blocking assays (anti-HLA mAb, TCL proliferation); type: cell-based, human; details: for antibody that blocked T cell recognition of the epitope: Ara h 2 epitopes
Protocol: Materials and Methods Subjects: Peanut-allergic adult subjects were recruited from The Alfred Allergy Clinic, Melbourne, Australia. […] Some subjects were genotyped (HLA-DRB1, -DQB1 and -DPB1, exon 2) by the Victorian Transplantation and Immunogenetics Service. The study was approved by The Alfred and Monash University Ethics Committees and informed written consent obtained from each subject. Antigens: Crude peanut extract (CPE) was prepared from commercial unsalted, dry-roasted peanuts as described elsewhere, (de Leon et al. Clin Exp Allergy. 2003; 33(9):1273-80) dialyzed against phosphate-buffered saline (PBS) and filter-sterilized (0.2 μm). Natural Ara h 1 and Ara h 2 were enriched from CPE based on published methodology. (de Jong E C et al. Clin Exp Allergy. 1998; 28(6):743-51) Briefly, CPE was buffer exchanged into 20 mM TRIS-bis-propane (TBP), pH 7.2, using Vivaspin columns (Sartorius Stedim Biotech S.A., Aubagne, France) and applied onto a 5 mL Mono-Q 10/10 column (Pharmacia FPLC System, St Albans, UK) equilibrated with TBP. After washing with TBP, a linear gradient of 30 mL 0-1 M NaCl/TBP was applied to elute bound proteins (1 mL/min). Fractions, 0.5 mL, were analyzed by SDS-PAGE and those containing Ara h 1 or Ara h 2 with minimal other proteins pooled and dialyzed against PBS. Endotoxin contents were 1.7, 4.0 and 78.0 EU/mg for CPE, Ara h 1 and Ara h 2 respectively (Endpoint Chromogenic LAL assay, Lonza, Walkersville, USA). Peptides (Mimotopes, Victoria, Australia and GenScript USA Inc, New Jersey, USA) were reconstituted at 1-4 mg/ml in 10% dimethyl sulfoxide/PBS (20-mers and truncated peptide sets) or PBS, 1-2% acetic acid or 0.1M ammonium bicarbonate buffers as specified (custom-synthesized core epitope peptides). All antigens were confirmed to be neither mitogenic nor toxic as described (Eusebius N P et al., Int Arch Allergy Immunol. 2002; 127(3):234-44). Generation of Ara h 1 and Ara h 2-specific CD4+ T-cell lines (TCL): Ara h 1 or Ara h 2-specific oligoclonal TCL were generated from peripheral blood mononuclear cells (PBMC) of peanut-allergic subjects using 5,6-carboxyfluorescein diacetate succinimidylester (CFSE)-based methodology. (Mannering S I et al., J Immunol Methods. 2005; 298(1-2):83-92; Prickett S R, et al., J Allergy Clin Immunol. 2011; 127(3):608-15 el-5). Briefly, culturing was performed in RPMI-1640 containing 2 mM L-glutamine, 100 IU/mL penicillin-streptomycin and 5% human AB serum (Sigma-Aldrich, St Louis, USA) (cRPMI). PBMC were labelled with 0.1 μM CFSE (Molecular Probes, Eugene, USA) and cultured (2.5×10^6/mL) with cRPMI alone, CPE (100 μg/mL), Ara h 1 or Ara h 2 (10 μg/mL), Ara h 1 or Ara h 2 20-mer-peptide pools (10 μg/mL/peptide) or as a control, tetanus toxoid (TT; 10 LfU/mL; Statens Serum Institute, Copenhagen, Denmark) for 7 days at 37° C. After staining with CD4-PE and 7AAD (BD Pharmingen, San Diego, USA), CD4+CFSEdim7AAD-cells were sorted (10 cells/well) into 96-U-well plates containing irradiated allogeneic feeder-cells, anti-CD3 (OKT-3), rIL-2 (Cetus, Emeryville, USA) and Fungizone (Invitrogen, Carlsbad, USA) as described. Cells were fed with rIL-2 as required and after 10-14 days, transferred to 48-well plates and tested for proliferation to Ara h 1 or Ara h 2 (10 μg/mL). Ara h 1 or Ara h 2-positive TCL were expanded with anti-CD3 and rIL-2 in T25 culture flasks (BD, Franklin Lakes, USA) for 10-12 days then tested for specificity (proliferation) to overlapping 20-mer peptides spanning the respective sequence (10 μg/mL). Core epitope sequences were mapped within selected 20-mers using peptide sets truncated from the N- or C-terminus of the 20-mer as described (Prickett S R, et alc. J Allergy Clin Immunol. 2011; 127(3):608-15 el-5). T-cell assays:All culturing was performed in RPMI-1640 containing 2 mM L-glutamine, 100 IU/mL penicillin-streptomycin and 5% heat-inactivated human AB serum (Sigma-Aldrich, St Louis, USA) (cRPMI). […]

[1] = test system: HLA-DRB1, -DQB1 and -DPB1; assay: HLA-genotyping of subjects whose TCL recognise the epitopes; set-up: species or system human; details: for HLA allele presenting the epitope / present in all recognising subjects: HLA-typed subjects; for HLA-binding degeneracy (presented by): no shared allele between responding subjects
[2] = test system: PBMC CD4+ T cells of peanut-allergic subjects; assay: 7-day CFSE assay of peptide-induced CD4+ T-cell proliferation/activation within whole PBMC; type: cell-based, human; details: screen of 25 new subjects
[3] = Peptide solubility in buffers; type: physicochemical
specific IgE = details: cited from earlier work
[4] = Table 4, dominant core T cell epitopes

| Molecule | HLA-restriction (HLA-DR, HLA-DQ, HLA-DP; [4]) | HLA-restriction (HLA-DR, HLA-DQ, HLA-DP; Table 7, 10 candidate peptides) | other results |
| --- | --- | --- | --- |
| FQNLQNHRIV (listed as Arachis hypogaea) [23 core] | HLA-DR |  |  |
| SQLERANLRPCEQ [4 core] | HLA-DP |  | antibody that blocked T cell recognition of the epitope (HLA-DR, HLA-DQ, HLA-DP): anti-HLA-DP; HLA allele presenting the epitope / present in all recognising subjects [1]: DPB1*04:01 |
| EFENNQRSMSEALQ [Peptide 23] |  |  | T cell responses compared with longer version containing an additional epitope [2]: Induced equivalent T cell |
| EFENNQRCMCEALQ [10/11 core] | HLA-DQ |  | HLA allele presenting the epitope / present in all recognising subjects [1]: DRB1*15:01; HLA-binding degeneracy (presented by) [1]: multiple HLA-DQB1 molecules |
| ELNEFENNQRCM [10 core] | HLA-DR |  |  |
| EVKPDKKNPQLQ (listed as Arachis hypogaea) [Peptide 15] | HLA-DR |  | T cell responses compared with longer version containing an additional epitope [2]: Induced equivalent T cell |
| ALMLPHFNSKAMVIVVV [50 core] | HLA-DR | HLA-DR |  |
| KAMVIVVVNKG (KAMVIVVVNKGTGNLELVAVD; listed as Arachis hypogaea) [50/51 core] | HLA-DR |  |  |
| NNFGKLFEVKPDKKNPQLQ (listed as Arachis hypogaea) [46 + 47 core] |  | HLA-DR |  |
| RELRNLPQQCGLRA [15 core] |  |  | antibody that blocked T cell recognition of the epitope (HLA-DR, HLA-DQ, HLA-DP): anti-HLA-DR; HLA-binding degeneracy (presented by) [1]: multiple HLA-DRB1 molecules |
| ELNEFENNQRSMSEALQ [10 + 10/11 core] |  | HLA-DR; also recorded: or -DQ |  |
| WSTRSSENNEGVIVKVSKE [40 core] | HLA-DQ | HLA-DQ |  |
| VEIKEGALMLPHFNSKA (listed as Arachis hypogaea) [Peptide 4] | HLA-DQ | HLA-DQ |  |
| FQNLQNHRIVQIEAKPNTLV (listed as Arachis hypogaea) [Peptide 1] |  | HLA-DR |  |
| RIVQIEAKPNTLV (listed as Arachis hypogaea) [24 core] | HLA-DR |  |  |
| GDVFIMPAAHPVAINASSE [Peptide 7, GDVFIMPAAHPVAINASSE] |  |  | solubility of the version without the added C-terminal ‘E’ [3]: insoluble except in toxic buffers; solubility in PBS, 0.1M NH4HCO3, or 1-2% acetic acid ([3]; redesigned new version for peptide 7): soluble; peptide 7 in Table 7) |
| GDVFIMPAAHPVAINASS (listed as Arachis hypogaea) [57 core] | HLA-DR; also recorded: HLA-DQ | HLA-DR; also recorded: HLA-DQ |  |
| NNFGKLFEVKPDKKNPQ [46 core] | HLA-DR |  |  |
| ANLRPSEQHLM [Peptide 21] |  |  | T cell responses compared with longer version containing an additional epitope [2]: Induced equivalent T cell |
| ANLRPCEQHLM [4/5 core] | HLA-DR; also recorded: HLA-DQ |  | antibody that blocked T cell recognition of the epitope (HLA-DR, HLA-DQ, HLA-DP): anti-HLA-DR; HLA-DR molecules presenting the epitope [1]: at least 2; HLA allele presenting the epitope / present in all recognising subjects [1]: HLA-DQB1*06:09; HLA-binding degeneracy (presented by) [1]: multiple HLA-DRB1 molecules |
| KAMVIVVVNKGTGNLELVAV [51 ‘core’] | HLA-DR | HLA-DR |  |
| B1 |  |  | sera reactive with Ara h 2 (specific IgE; Burks et al, 1992): 6 out of 6; subjects with specific IgE to purified natural Ara h 2 (specific IgE; de Jong's group): approximately 78%; subjects possessing specific IgE to Ara h 2 (specific IgE; western blotting of crude peanut extract, Clarke): 71%; subjects possessing IgE towards recombinant form (specific IgE; western blotting, Kleber-Janke et al.): 85% |
